Data: US20020161002A1, “Use of catecholamine reuptake inhibitors to enhance memory” (priority 2001, published 2002)

Legend:
IA memory in the rat = experiment: Inhibitory Avoidance (IA) task, normal rats; format: in vivo; settings: for performance on the IA task, normal rats: one hour before, p<0.05 relative to all other groups; for long-term retention of the IA task: second retention test one week after the first, no additional training or drug
Procedure: An exemplary passive avoidance test utilizes an apparatus that consists of a lit chamber that can be separated from a dark chamber by a sliding door. At training, the animal is placed in the lit chamber for some period of time, and the door is opened. The animal moves to the dark chamber after a short delay—the latency—that is recorded. Upon entry into the dark chamber, the door is shut closed and a foot shock is delivered.
The Inhibitory Avoidance (IA) task is a well-studied behavioral paradigm which can provide the researcher with a consistent and long-lasting measure of memory. The paradigm consists of one training trial and one retention trial. Test articles may be administered to the rats either before or after training. […] The objective of the following experiments was to investigate the effects of methylphenidate on IA memory in the rat.

fornix lesion rats = experiment: Inhibitory Avoidance (IA) task, rats with lesions of the fornix (amnesic rats); format: in vivo, rat; settings: one hour before; for performance of treated fornix animals compared with normal, saline injected animals: Student-Newman-Keuls post hoc test
Description: Animal models for studying fornix-mediated memory consolidation have previously been described. See, for example, Taubenfield et al., Supra. The fornix-lesioned animals can be used for drug screening, e.g., to identify dosages of the subject reuptake inhibitors which enhance memory consolidation. The lesioned mammal can have a lesion of the fornix or a related brain structure that disrupts memory consolidation (e.g., perirhinal cortex, amygdala, medial septal nucleus, locus coeruleus, hippocampus, mammallary bodies). Lesions in the mammal can be produced by mechanical or chemical disruption. For example, the fornix lesion can be caused by surgical ablation, electrolytic, neurotoxic and other chemical ablation techniques, or reversible inactivation such as by injection of an anesthetic, e.g., tetrodotoxin or lidocaine, to temporarily arrest activity in the fornix.
In one embodiment, the animal can be a rat. Briefly, the animals are anesthetized, e.g., with intraperitoneal injections of a ketamine-xylazine mixture and positioned in a Kopf stereotaxic instrument. A sagittal incision is made in the scalp and a craniotomy is performed extending 2.0 mm posterior and 3.0 mm lateral from Bregma. An aspirative device, e.g., with a 20 gauge tip, is mounted to a stereotaxic frame (Kopf Instruments) and fimbria-fornix is aspirated by placing the suction tip at the correct sterotaxic location in the animals brain. Unilateral aspirative lesions are made by suction through the cingulate cortex, completely transecting the fimbria fornix unilaterally, and (optionally) removing the dorsal tip of the hippocampus as well as the overlying cingulate cortex to inflict a partial denervation on the hippocampus target. See also, Gage et al., (1983) Brain Res. 268:27 and Gage et al. (1986) Neuroscience 19:241.
The Inhibitory Avoidance (IA) task is a well-studied behavioral paradigm which can provide the researcher with a consistent and long-lasting measure of memory. The paradigm consists of one training trial and one retention trial. Test articles may be administered to the rats either before or after training. Improved memory, as a result of test compound administration, is evident as increased latency on the retention trial. The objective of the following experiments was to investigate the effects of methylphenidate on IA memory in the rat.
In the next experiment, we investigated whether the performance of amnesic rats could be improved by administration of methylphenidate. In this experiment, control rats and rats with lesions of the fornix received injections of either saline or methylphenidate (5 mg/kg), and one hour later, were tested on the IA task.
In the next experiment, we investigated whether the performance of amnesic rats could be improved by administration of amphetamine. […]

rats = experiment: Activity level tests (10 minute session); settings: 0.5 mg/kg; 10 minute period one hour after injection; FIGS. 16-21

SMILES: C[C@H](N)Cc1ccccc1 [S-(+)amphetamine]
- retention of the IA task (IA memory in the rat; 2 mg/kg (200 standard units) one hour prior to training, 24 hour retention interval, 0.46 mA shock, FIG. 9): improved retention of the task
- retention of the IA task (IA memory in the rat; 25 standard units/kg, injected thirty minutes prior to training, FIG. 4): no effect
- retention of the IA task (IA memory in the rat; 50 standard units/kg, injected thirty minutes prior to training, FIG. 4): no effect
- retention of the IA task (IA memory in the rat; 100 standard units/kg, injected thirty minutes prior to training, FIG. 4): no effect
- retention of the IA task (IA memory in the rat; 200 standard units, injected thirty minutes prior to training, FIG. 4): improved retention of the task
- performance on the IA task, normal rats (IA memory in the rat; 200 standard units/kg, FIG. 8): dramatically enhanced the performance of normal rats
- retention of the IA task (second, verifying experiment) (IA memory in the rat; 200 standard units/kg, unpaired t-test p<0.01, FIG. 5): significantly improved retention of the task
- long-term retention of the IA task (IA memory in the rat; F(4,47)=3.688, p<0.01, FIG. 7): performed significantly better than rats that had received control injections of vehicle solution
- performance on the IA task, fornix lesion rats (fornix lesion rats; 200 standard units/kg, FIG. 8): appeared to improve the performance of the fornix lesion rats
- performance of treated fornix animals compared with normal, saline injected animals (fornix lesion rats; 200 standard units/kg): not significantly different from normal, saline injected animals

SMILES: C[C@@H](N)Cc1ccccc1 [R-(−)amphetamine]
- activity levels (distance, movements, movement time, rears, stereotyped movements, resting time) versus saline control (rats): no significant effects on the activity levels
- retention of the IA task (second, verifying experiment) (IA memory in the rat; 0.5 mg/kg one hour prior to training, 24 hour retention interval, 0.46 mA shock, unpaired t-test p<0.002, FIG. 15): significantly improved retention of the task
- dose required for improved retention of the IA task, compared with S-(+)amphetamine (IA memory in the rat; 0.5, 1.0, 2.0 or 4.0 mg/kg one hour prior to training, 24 hour retention interval, 0.46 mA shock, FIG. 14): a much lower dose of R-(−)amphetamine is required for the same improved retention effect
- retention of the IA task at doses above 0.5 mg/kg (IA memory in the rat; 1.0, 2.0 or 4.0 mg/kg versus 0.5 mg/kg, one hour prior to training, 24 hour retention interval, FIG. 14): did not further improve the retention results

SMILES: COC(=O)C(c1ccccc1)C1CCCCN1 (centres unmarked) [methylphenidate]
- performance on the IA task, normal rats (IA memory in the rat; 5 mg/kg, FIG. 3): dramatically enhanced the performance of normal rats
- retention of the IA task (IA memory in the rat; 50 standard units/kg, injected thirty minutes prior to training, FIG. 1): improved retention
- optimal pre-training drug administration time (IA memory in the rat; 50 standard units/kg, time of administration varied): most effective when administered to the rats one hour prior to training
- retention of the IA task (second, verifying experiment) (IA memory in the rat; 50 standard units/kg, unpaired t-test p<0.03, FIG. 2): significantly improved retention of the task
- retention of the IA task (IA memory in the rat; 100 standard units/kg, injected thirty minutes prior to training, FIG. 1): no effect
- retention of the IA task (IA memory in the rat; 150 standard units/kg, injected thirty minutes prior to training, FIG. 1): no effect
- long-term retention of the IA task (IA memory in the rat): this improvement is long lasting
- performance on the IA task, fornix lesion rats (fornix lesion rats; 5 mg/kg, FIG. 3): appeared to improve the performance of the fornix lesion rats
- performance of treated fornix animals compared with normal, saline injected animals (fornix lesion rats; 5 mg/kg): not significantly different from normal, saline injected animals
